# From ChEMBL document CHEMBL3885861, “Open TG-GATES”
# Organism: Rattus norvegicus
# Experiment: Open TG-GATES - Regimen: Daily Repeat
# Format: toxicity, organism-based, Sprague-Dawley
# Parameters: regimen Daily Repeat, gender Male, age 6 weeks
# Settings: in vivo, po, 30 mg/kg, route gavage, dose level Low; for APTT / Bas / Eos / Fbg / Hb / Ht / Lym / MCH / MCHC / MCV / Mono / Neu / PT / Plat / RBC / Ret / WBC: tissue Blood; for KIDNEY_L / KIDNEY_R / KIDNEY_TOTAL: tissue Kidney; for LIVER: tissue Liver; for A/G / ALP / ALT / AST / BUN / CRE / Ca / Cl / DBIL / GLC / IP / K / LDH / Na / PL / RALB / TBIL / TC / TG / TP / gamma-GTP: tissue Plasma
structure (smiles),measurement,setting,value
CCc1oc2ccccc2c1C(=O)c1cc(I)c(O)c(I)c1 [BENZIODARONE],TERMINAL_BW,"72 h, time 3 day",242 g
same,APTT,"72 h, time 3 day",17.5 s
same,Bas,"72 h, time 3 day",0%
same,Eos,"72 h, time 3 day",1%
same,Fbg,"72 h, time 3 day",216.8 mg/dL
same,Hb,"72 h, time 3 day",13.8 g/dL
same,Ht,"72 h, time 3 day",40.8%
same,Lym,"72 h, time 3 day",79.4%
same,MCH,"72 h, time 3 day",21.9 pg
same,MCHC,"72 h, time 3 day",33.8%
same,MCV,"72 h, time 3 day",64.7 fL
same,Mono,"72 h, time 3 day",6.4%
same,Neu,"72 h, time 3 day",13.2%
same,PT,"72 h, time 3 day",11.7 s
same,Plat,"72 h, time 3 day",115.3 x10_4/uL
same,RBC,"72 h, time 3 day",629.4 x10_4/ul
same,Ret,"72 h, time 3 day",6.5%
same,WBC,"72 h, time 3 day",104.5 x10_2/uL
same,KIDNEY_L,"72 h, time 3 day",1.1 g
same,KIDNEY_R,"72 h, time 3 day",1.1 g
same,KIDNEY_TOTAL,"72 h, time 3 day",2.2 g
same,LIVER,"72 h, time 3 day",12.7 g
same,A/G,"72 h, time 3 day",1.8
same,ALP,"72 h, time 3 day",1087.2 IU/L
same,ALT,"72 h, time 3 day",42.6 IU/L
same,AST,"72 h, time 3 day",67.4 IU/L
same,BUN,"72 h, time 3 day",16.8 mg/dL
same,CRE,"72 h, time 3 day",0.5 mg/dL
same,Ca,"72 h, time 3 day",10.7 mg/dL
same,Cl,"72 h, time 3 day",104 meq/L
same,DBIL,"72 h, time 3 day",0.016 mg/dL
same,GLC,"72 h, time 3 day",191.2 mg/dL
same,IP,"72 h, time 3 day",7.8 mg/dL
same,K,"72 h, time 3 day",4.5 meq/L
same,LDH,"72 h, time 3 day",103.8 IU/L
same,Na,"72 h, time 3 day",141 meq/L
same,PL,"72 h, time 3 day",155.4 mg/dL
same,RALB,"72 h, time 3 day",3.6 g/dL
same,TBIL,"72 h, time 3 day",0.3 mg/dL
same,TC,"72 h, time 3 day",79.4 mg/dL
same,TG,"72 h, time 3 day",74.4 mg/dL
same,TP,"72 h, time 3 day",5.7 g/dL
same,gamma-GTP,"72 h, time 3 day",1.6 IU/L
same,TERMINAL_BW,"[…], time 7 day",274.9 g
same,TERMINAL_BW,"[…], time 14 day",323 g
same,TERMINAL_BW,"[…], time 28 day",399.3 g
same,APTT,"[…], time 7 day",17.5 s
same,Bas,"[…], time 7 day",0%
same,Eos,"[…], time 7 day",1%
same,Fbg,"[…], time 7 day",221.6 mg/dL
same,Hb,"[…], time 7 day",14.2 g/dL
same,Ht,"[…], time 7 day",41.8%
same,Lym,"[…], time 7 day",84.6%
same,MCH,"[…], time 7 day",21.5 pg
same,MCHC,"[…], time 7 day",34%
same,MCV,"[…], time 7 day",63.2 fL
same,Mono,"[…], time 7 day",4.6%
same,Neu,"[…], time 7 day",10%
same,PT,"[…], time 7 day",11.9 s
same,Plat,"[…], time 7 day",117.9 x10_4/uL
same,RBC,"[…], time 7 day",661.6 x10_4/ul
same,Ret,"[…], time 7 day",4.7%
same,WBC,"[…], time 7 day",111.9 x10_2/uL
same,APTT,"[…], time 14 day",18.1 s
same,Bas,"[…], time 14 day",0%
same,Eos,"[…], time 14 day",1%
same,Fbg,"[…], time 14 day",223.6 mg/dL
same,Hb,"[…], time 14 day",14.6 g/dL
same,Ht,"[…], time 14 day",43.4%
same,Lym,"[…], time 14 day",82.8%
same,MCH,"[…], time 14 day",20.5 pg
same,MCHC,"[…], time 14 day",33.6%
same,MCV,"[…], time 14 day",61.1 fL
same,Mono,"[…], time 14 day",5.2%
same,Neu,"[…], time 14 day",11.2%
same,PT,"[…], time 14 day",11.8 s
same,Plat,"[…], time 14 day",117.5 x10_4/uL
same,RBC,"[…], time 14 day",710 x10_4/ul
same,Ret,"[…], time 14 day",2.5%
same,WBC,"[…], time 14 day",109.1 x10_2/uL
same,APTT,"[…], time 28 day",18.9 s
same,Bas,"[…], time 28 day",0%
same,Eos,"[…], time 28 day",1.6%
same,Fbg,"[…], time 28 day",231.2 mg/dL
same,Hb,"[…], time 28 day",15.2 g/dL
same,Ht,"[…], time 28 day",45.4%
same,Lym,"[…], time 28 day",83.2%
same,MCH,"[…], time 28 day",19 pg
same,MCHC,"[…], time 28 day",33.6%
same,MCV,"[…], time 28 day",56.7 fL
same,Mono,"[…], time 28 day",4.8%
same,Neu,"[…], time 28 day",11%
same,PT,"[…], time 28 day",12 s
same,Plat,"[…], time 28 day",124.3 x10_4/uL
same,RBC,"[…], time 28 day",799.8 x10_4/ul
same,Ret,"[…], time 28 day",3%
same,WBC,"[…], time 28 day",128.8 x10_2/uL
same,KIDNEY_L,"[…], time 7 day",1.2 g
same,KIDNEY_R,"[…], time 7 day",1.2 g
same,KIDNEY_TOTAL,"[…], time 7 day",2.4 g
same,KIDNEY_L,"[…], time 14 day",1.3 g
same,KIDNEY_R,"[…], time 14 day",1.3 g
same,KIDNEY_TOTAL,"[…], time 14 day",2.5 g
same,KIDNEY_L,"[…], time 28 day",1.4 g
same,KIDNEY_R,"[…], time 28 day",1.4 g
same,KIDNEY_TOTAL,"[…], time 28 day",2.9 g
same,LIVER,"[…], time 7 day",14.7 g
same,LIVER,"[…], time 14 day",15.7 g
same,LIVER,"[…], time 28 day",18.7 g
same,A/G,"[…], time 7 day",1.7
same,ALP,"[…], time 7 day",918 IU/L
same,ALT,"[…], time 7 day",32.6 IU/L
same,AST,"[…], time 7 day",63.4 IU/L
same,BUN,"[…], time 7 day",18 mg/dL
same,CRE,"[…], time 7 day",0.6 mg/dL
same,Ca,"[…], time 7 day",10.8 mg/dL
same,Cl,"[…], time 7 day",103.4 meq/L
same,DBIL,"[…], time 7 day",0.018 mg/dL
same,GLC,"[…], time 7 day",191.8 mg/dL
same,IP,"[…], time 7 day",7.3 mg/dL
same,K,"[…], time 7 day",4.6 meq/L
same,LDH,"[…], time 7 day",101.6 IU/L
same,Na,"[…], time 7 day",139.6 meq/L
same,PL,"[…], time 7 day",153.2 mg/dL
same,RALB,"[…], time 7 day",3.7 g/dL
same,TBIL,"[…], time 7 day",0.3 mg/dL
same,TC,"[…], time 7 day",73.6 mg/dL
same,TG,"[…], time 7 day",110.6 mg/dL
same,TP,"[…], time 7 day",5.9 g/dL
same,gamma-GTP,"[…], time 7 day",2 IU/L
same,A/G,"[…], time 14 day",1.7
same,ALP,"[…], time 14 day",914 IU/L
same,ALT,"[…], time 14 day",31.8 IU/L
same,AST,"[…], time 14 day",63.2 IU/L
same,BUN,"[…], time 14 day",19.6 mg/dL
same,CRE,"[…], time 14 day",0.5 mg/dL
same,Ca,"[…], time 14 day",10.3 mg/dL
same,Cl,"[…], time 14 day",105.2 meq/L
same,DBIL,"[…], time 14 day",0.008 mg/dL
same,GLC,"[…], time 14 day",200.4 mg/dL
same,IP,"[…], time 14 day",6.7 mg/dL
same,K,"[…], time 14 day",4.6 meq/L
same,LDH,"[…], time 14 day",109.6 IU/L
same,Na,"[…], time 14 day",141.2 meq/L
same,PL,"[…], time 14 day",152.8 mg/dL
same,RALB,"[…], time 14 day",3.9 g/dL
same,TBIL,"[…], time 14 day",0.3 mg/dL
same,TC,"[…], time 14 day",71.6 mg/dL
same,TG,"[…], time 14 day",159.4 mg/dL
same,TP,"[…], time 14 day",6.2 g/dL
same,gamma-GTP,"[…], time 14 day",1.8 IU/L
same,A/G,"[…], time 28 day",1.8
same,ALP,"[…], time 28 day",629.8 IU/L
same,ALT,"[…], time 28 day",36.4 IU/L
same,AST,"[…], time 28 day",63.8 IU/L
same,BUN,"[…], time 28 day",20.2 mg/dL
same,CRE,"[…], time 28 day",0.7 mg/dL
same,Ca,"[…], time 28 day",10.9 mg/dL
same,Cl,"[…], time 28 day",104.2 meq/L
same,DBIL,"[…], time 28 day",0.01 mg/dL
same,GLC,"[…], time 28 day",194.4 mg/dL
same,IP,"[…], time 28 day",6.4 mg/dL
same,K,"[…], time 28 day",4.4 meq/L
same,LDH,"[…], time 28 day",121.4 IU/L
same,Na,"[…], time 28 day",139.6 meq/L
same,PL,"[…], time 28 day",156.6 mg/dL
same,RALB,"[…], time 28 day",4 g/dL
same,TBIL,"[…], time 28 day",0.3 mg/dL
same,TC,"[…], time 28 day",78.4 mg/dL
same,TG,"[…], time 28 day",123.8 mg/dL
same,TP,"[…], time 28 day",6.3 g/dL
same,gamma-GTP,"[…], time 28 day",1.8 IU/L
